US6436902B1, “Therapeutic preparations for inhalation” (AstraZeneca AB, priority 1994, dated 2002)

Legend:
[1] = rats, intratracheal (IT) administration, cited from earlier work; for Shape of serum profile: 90 minutes experiment
[2] = Pharmacokinetic study: plasma concentration of PTH in dogs after inhalation of dry powder aerosol (RIA); format: in vivo, Beagle dogs; details: for Plasma concentration of PTH: PTH 1-84, inhaled dose 14 μg/kg; for Shape of serum/plasma profile after inhalation: dry powder aerosol inhaled via endotracheal tube
Experimental: The powder formulations were compressed in dust containers and generated continuously as dry powder aerosols by a Wright Dust Feed (WDF). The aerosols were generated by scraping off the formulations from the tablets in the dust containers. The mass flow through the WDF was 8.01/min.
The inhaled dose (ID) was determined by measuring the inspiratory tidal volume (ITV) and the PTH concentration during inhalation.
Beagle dogs (n=5, at each formulation) were starved for 16 hours before inhalation and the experiments were performed in the mornings.
Venous blood samples for determination of PTH concentration were taken from the jugular vein into heparinized vacutainer tubes (2 ml). The samples were collected before dosing and at 10, 15, 20, 30, 40, 60, 90, 120, 240 and 360 minutes after start (t=0) of inhalation. The whole blood samples were centrifuged immediately, alternatively kept in ice water for maximum 20 minutes before centrifugation, and the plasma (1 ml) was sampled for PTH analysis. PTH in plasma was analyzed using radioimmunoassay (RIA) kits.

[3] = tested on: ovariectomized osteopenic rats; assay: Bone effect: mineral density of the distal femur in ovariectomized osteopenic rats; format: in vivo; details: inhalation, 4 weeks of administration starting 6 weeks post ovariectomy
Experimental: The bone effect is measured in ovariectomized osteopenic rats as mineral density as weight/volume of the distal femur after 4 weeks of administration; starting 6 weeks post ovariectomy.

PTH 1-84: Human parathyroid hormone, 84 amino acid protein (SEQ ID NO: 1); given as micronised dry powder with lactose and citrate
Shape of serum profile [1]: plateau which did not diminish significantly during the 90 minutes
Plasma concentration of PTH ([2]; 10 min after start of inhalation): 0.0083 nM
Plasma concentration of PTH ([2]; 15 min after start of inhalation): 0.0114 nM
Plasma concentration of PTH ([2]; 20 min after start of inhalation): 0.0116 nM
Plasma concentration of PTH ([2]; 30 min after start of inhalation): 0.0096 nM
Plasma concentration of PTH ([2]; 40 min after start of inhalation): 0.0079 nM
Plasma concentration of PTH ([2]; 60 min after start of inhalation): 0.0058 nM
Plasma concentration of PTH ([2]; 90 min after start of inhalation): 0.0041 nM
Plasma concentration of PTH ([2]; 120 min after start of inhalation): 0.003 nM
Plasma concentration of PTH ([2]; 360 min after start of inhalation): 0.0026 nM
Plasma concentration of PTH ([2]; time 0 min (before dosing)): 0.0034 nM
Shape of serum/plasma profile after inhalation [2]: pulsatile serum profile
Shape of serum/plasma profile after inhalation ([2]; listed as full-length PTH): pulsative plasma profile
Effect on femur bone formation (mineral density of the distal femur) [3]: significant effect on femur bone formation

CC[C@H](C)[C@H](NC(=O)[C@H](CCC(=O)O)NC(=O)[C@H](CO)NC(=O)[C@@H](NC(=O)[C@@H](N)CO)C(C)C)C(=O)N[C@@H](CCC(N)=O)C(=O)N[C@@H](CC(C)C)C(=O)N[C@@H](CCSC)C(=O)N[C@@H](Cc1cnc[nH]1)C(=O)N[C@@H](CC(N)=O)C(=O)N[C@@H](CC(C)C)C(=O)NCC(=O)N[C@@H](CCCCN)C(=O)N[C@@H](Cc1cnc[nH]1)C(=O)N[C@@H](CC(C)C)C(=O)N[C@@H](CC(N)=O)C(=O)N[C@@H](CO)C(=O)N[C@@H](CCSC)C(=O)N[C@@H](CCC(=O)O)C(=O)N[C@@H](CCCN=C(N)N)C(=O)N[C@H](C(=O)N[C@@H](CCC(=O)O)C(=O)N[C@@H](Cc1c[nH]c2ccccc12)C(=O)N[C@@H](CC(C)C)C(=O)N[C@@H](CCCN=C(N)N)C(=O)N[C@@H](CCCCN)C(=O)N[C@@H](CCCCN)C(=O)N[C@@H](CC(C)C)C(=O)N[C@@H](CCC(N)=O)C(=O)N[C@@H](CC(=O)O)C(=O)N[C@H](C(=O)N[C@@H](Cc1cnc[nH]1)C(=O)N[C@@H](CC(N)=O)C(=O)N[C@@H](Cc1ccccc1)C(=O)O)C(C)C)C(C)C [PTH 1-34]
Shape of serum profile [1]: activity diminishing rapidly thereafter
Time of serum peak [1]: 15 min
level at time molar at 10 min ([2]; beagle, dog, plasma, inhaled or intranasal, 4 ug/kg, PTH 1-34, inhaled dose 4.0 μg/kg, 10 min after start of inhalation): 0.0304 nM
level at time molar at 0.25 h ([2]; beagle, dog, plasma, inhaled or intranasal, 4 ug/kg, PTH 1-34, inhaled dose 4.0 μg/kg, 15 min after start of inhalation): 0.0474 nM
level at time molar at 20 min ([2]; beagle, dog, plasma, inhaled or intranasal, 4 ug/kg, PTH 1-34, inhaled dose 4.0 μg/kg, 20 min after start of inhalation): 0.0496 nM
level at time molar at 0.5 h ([2]; beagle, dog, plasma, inhaled or intranasal, 4 ug/kg, PTH 1-34, inhaled dose 4.0 μg/kg, 30 min after start of inhalation): 0.0446 nM
level at time molar at 40 min ([2]; beagle, dog, plasma, inhaled or intranasal, 4 ug/kg, PTH 1-34, inhaled dose 4.0 μg/kg, 40 min after start of inhalation): 0.0362 nM
level at time molar at 1 h ([2]; beagle, dog, plasma, inhaled or intranasal, 4 ug/kg, PTH 1-34, inhaled dose 4.0 μg/kg, 60 min after start of inhalation): 0.026 nM
level at time molar at 1.5 h ([2]; beagle, dog, plasma, inhaled or intranasal, 4 ug/kg, PTH 1-34, inhaled dose 4.0 μg/kg, 90 min after start of inhalation): 0.017 nM
level at time molar at 2 h ([2]; beagle, dog, plasma, inhaled or intranasal, 4 ug/kg, PTH 1-34, inhaled dose 4.0 μg/kg, 120 min after start of inhalation): 0.0126 nM
level at time molar at 4 h ([2]; beagle, dog, plasma, inhaled or intranasal, 4 ug/kg, PTH 1-34, inhaled dose 4.0 μg/kg, 240 min after start of inhalation): 0.006 nM
level at time molar at 6 h ([2]; beagle, dog, plasma, inhaled or intranasal, 4 ug/kg, PTH 1-34, inhaled dose 4.0 μg/kg, 360 min after start of inhalation): 0.0076 nM
level at time molar at 0 h ([2]; beagle, dog, plasma, inhaled or intranasal, 4 ug/kg, PTH 1-34, inhaled dose 4.0 μg/kg, time 0 min (before dosing)): 0.008 nM
Shape of serum/plasma profile after inhalation [2]: pulsatile serum profile
